Experimental findings from patent US20230173047A1, “CITRULLINATED NUCLEOPHOSMIN PEPTIDES AS CANCER VACCINES” (SCANCELL LIMITED, priority 2020, published 2023) are described below.

Where a SMILES comes first, the peptide text is derived from it. [ ]: non-standard residue; d: D form. Cit = NC(=O)NCCC[C@H](N)C(=O)O

What all share (assay type): in vivo, mouse
In data set [1] the test system is T cell response in HLA-DR4 and HHDII/DP4 transgenic mice. As to the kind of experiment: Screening of citrullinated NPM peptides for T cell (IFNy) responses in HLA-DR4 and HHDII/DP4 transgenic mice. To be noted: for T cell response: citrullinated NPM peptides, HLA-DR4 and HHDII/DP4 transgenic mice, IFNy ELISpot. How it is done: (§1) HLA-DR4 mice (Taconic, USA) and the HHDII/HLA-DP4 transgenic strain of mouse as described in patent WO2013/017545 A1 (EMMA repository, France) were used, aged between 8 and 12 weeks, and cared for by the staff at Nottingham Trent University. All work was carried out under a Home Office project licence. Peptides were dissolved in 10% dimethylformamide to 1 mg/mL and then emulsified (a series of dilutions) with the adjuvant CpG and MPLA 6 µg/mouse of each (Invivogen, UK). Peptides (25 µg/mouse) were injected subcutaneously at the base of the tail.
(§2) ELISpot assays were performed using murine IFNy capture and detection reagents according to the manufacturer’s instructions (Mabtech, Sweden). In brief, anti-IFNʏ antibody was coated onto wells of a 96-well Immobilin-P plate. Synthetic peptides (at a variety of concentrations) and 5×10^5 per well splenocytes were added to the wells of the plate in triplicate. LPS at 5 µg/mL was used as a positive control. Peptide pulsed target cells were added where relevant at 5×10^4 per well in triplicate and plates incubated for 40 hours at 37° C. After incubation, captured IFNy was detected by a biotinylated anti-IFNʏ antibody and developed with a streptavidin alkaline phosphatase and chromogenic substrate. […] For blocking studies, anti-CD4 blocking antibody (RPA-T4) and anti-CD8 blocking antibody (2.43) from Bioxcell were used at 20 µg/mL. Spots were analysed and counted using an automated plate reader (Cellular Technologies Ltd).
T cell responses to tumour associated epitopes are often weak or non-existent due to tolerance and T cell deletion within the thymus. The citrullinated NPM peptides were screened in HLA-DR4 and HHDII/DP4 transgenic mice for their ability to stimulate IFNy responses. Every peptide containing an arginine was selected and the arginine residue was replaced with citrulline (cit).
(§3) Screening was performed to identify potential citrullinated NPM epitopes that could generate an immune response in mice. Mice were immunised with pools of 4-6 human citrullinated peptides. […] Each pool was administered subcutaneously as a single immunisation given once a week for three weeks. Each peptide pool contained 25 µg of each peptide in combination with CpG/MPLA as an adjuvant. Mice were culled 7 days after the third immunisation, the immune response to each peptide within the immunising pool were assessed by ex vivo IFNy ELISpot (FIG. 2). We have previously shown that citrullinated peptides can induce responses in the transgenic DR4 mouse strain. Given that different mouse strains have different MHC repertoires, two different transgenic strains (DR4 and DP4) were used for screening.

Data set [2] relates to splenocytes of HHDII/DP4 transgenic mice. Nature of the data set: Ex vivo IFNy ELISpot on splenocytes after peptide immunisation, HHDII/DP4 mice. To be noted: for IFNy immune response to peptide: HHDII/DP4 mice immunised with peptide pools, 25 µg each + CpG/MPLA, weekly x3, vs media only. The procedure:
as §1, §2, §3
The core epitope was confirmed by immunising mice once weekly for three weeks with 25 µg of the NPM 261-280 cit or 266-285 cit peptide. HHDII/DP4 mice were immunised with the individual peptides whereas HLA-DR4 mice were immunised with a combination of NPM 261-280 cit and 266-285 cit, all given with CpG/MPLA. Mice were culled 7 days after the third immunisation.
To determine if the immune response to the NPM 266-285 peptide is specific to the citrullinated peptide and not the wild type (wt) version, mice were immunised with NPM 266-285 cit or NPM 266-285 wt peptides. HHDII/DP4 mice received 25 µg peptide (NPM 266-285 cit or NPM 266-285 wt) subcutaneously once a week for three weeks. Mice were culled 7 days after the third immunisation, the immune response to each peptide was assessed by ex vivo ELISpot (FIGS. 4A and 4B). […] In contrast, strong IFNy responses were detected in mice immunised with NPM 266-285 cit, these responses were significant when compared to the response to the NPM 266-285 wt peptide (p=0.0002) and the control (p=<0.0001). […]

In data set [3] the test system is splenocytes of HLA-DR4 transgenic mice. Nature of the data set: Ex vivo IFNy ELISpot on splenocytes after peptide immunisation, HLA-DR4 mice. The procedure: as §1
ELISpot assays were performed using murine IFNy capture and detection reagents according to the manufacturer’s instructions (Mabtech, Sweden). In brief, anti-IFNʏ antibody was coated onto wells of a 96-well Immobilin-P plate. […] After incubation, captured IFNy was detected by a biotinylated anti-IFNʏ antibody and developed with a streptavidin alkaline phosphatase and chromogenic substrate. […] Spots were analysed and counted using an automated plate reader (Cellular Technologies Ltd).
Screening was performed to identify potential citrullinated NPM epitopes that could generate an immune response in mice. […] Mice were culled 7 days after the third immunisation, the immune response to each peptide within the immunising pool were assessed by ex vivo IFNy ELISpot (FIG. 2). […]

The subject of data set [4] is B16 HHDII/iDP4 tumour cells. To be noted: immunised tumour bearing mice. How it is done:
as §1
For tumour challenge experiments, mice were challenged with 1×10^5 B16 HHDII/iDP4, B16F1HHDIIMHCIIKO or B16 HHDII/PAD2KOcDP4 cells subcutaneously on the right flank 3 days before primary immunisation (unless stated otherwise) and then immunised as described above. Tumour growth was monitored at 3-4 days intervals and mice humanely euthanised once tumour reached ≥10 mm in diameter.
The inventors had already established by Western blotting that the melanoma B16F1 cell lines constitutively express NPM and in vitro citrullination of NPM generates citrulline at position 277 (FIG. 5A and B). Next, the anti-tumour effect of NPM 266-285 cit peptide immunisation was assessed in vivo. The effect of immunisation with NPM 266-285 (cit and wt) on the growth of the mouse B16 melanoma cell line transfected with IFNy inducible human DP4 (iDP4) was assessed. […]

Regarding PPVVL-cit-LKCGSGPVHISGQH [96-115], the T cell response entry in data set [1] was “No”.
On to “LPKVEAKFINYVKNCF-cit-MTD [NPM 261-280 cit]”, for which the “IFNy immune response to peptide” value in data set [2] is “significant immune responses”. Besides, the “IFNy response to peptide” value in data set [2] (core epitope study, HHDII/DP4 mice immunised with individual peptide 25 µg weekly x3 + CpG/MPLA) is given as “Significant IFNʏ responses”. Moreover, in data set [1] (HHDII/DP4 and HLA-DR4 mice), the “Frequency of IFNy responses” value is recorded as “high frequency IFNy responses”. Moreover, in data set [1], the T cell response result was “Yes”.
Regarding DMDMSPL-cit-PQNYLFGCELKA [6-25], the T cell response result in data set [1] is reported as “No”.
AKFINYVKNCF-cit-MTD [NPM 266-280 cit]: in data set [2] (HHDII/DP4 transgenic mice, IFNy ELISpot), the “Response to core peptide compared with NPM 261-280 cit or NPM 266-285 cit” value was “no significant difference”. In addition, in data set [3], the “Response to core peptide compared with NPM 266-285 cit” value is reported as “significant difference”. For the same compound, in data set [1], the T cell response entry is given as “Yes”.
As to AEEKAPVKKSI-cit-DTPAKNAQ [186-205], the “IFNy immune response to peptide” value in data set [2] was “failed to induce an immune response”. In addition, the T cell response result in data set [1] is “No”.
As to LSISGK-cit-SAPGGGSKVPQKK [136-155], the T cell response entry in data set [1] was “No”.
GFETPPVVL-cit-LKCGSGPVH [91-110]: in data set [1], the T cell response result is reported as “No”.
Take QLSL-cit-TVSLGAGAKDELHIV [41-60]: the T cell response entry in data set [1] is on record as “No”.
Same read-out and setting: as for MEDSMDMDMSPL-cit-PQNYLFG [1-20], the entry is “No”; as for FKVDNDENEHQLSL-cit-TVSLG [31-50], “No”; as for DENEHQLSL-cit-TVSLGAGAKD [36-55], “No”.
The same measure, in the same setting: the entry for F-cit-MTDQEAIQDLWQWcitKSL [276-294] is “No”.
The same measure, in the same setting: the entry for PSSTP-cit-SKGQESFKKQEKTP [216-235] is “No”; for EDEEEEDVKLLSISGK-cit-SAP [126-145] it is “No”.
With PVKKSI-cit-DTPAKNAQKSNQN [191-210], in data set [2], the “IFNy immune response to peptide” value is recorded as “failed to induce an immune response”. For the same compound, the T cell response result in data set [1] is “No”.
On to EDVKLLSISGK-cit-SAPGGGSK [131-150], for which the T cell response result in data set [1] is recorded as “No”.
For KSNQNGKDSKPSSTP-cit-SKGQ [206-225], in data set [1], the T cell response entry is reported as “No”.
Regarding `CC[C@H](C)[C@H](NC(=O)[C@H](C)NC(=O)[C@H](CCC(=O)O)NC(=O)[C@H](CCC(N)=O)NC(=O)[C@H](CC(=O)O)NC(=O)[C@@H](NC(=O)[C@H](CCSC)NC(=O)[C@H](CCCNC(N)=O)NC(=O)[C@H](Cc1ccccc1)NC(=O)[C@H](CS)NC(=O)[C@H](CC(N)=O)NC(=O)[C@H](CCCCN)NC(=O)[C@@H](NC(=O)[C@H](Cc1ccc(O)cc1)NC(=O)[C@H](CC(N)=O)NC(=O)[C@@H](NC(=O)[C@H](Cc1ccccc1)NC(=O)[C@H](CCCCN)NC(=O)[C@H](C)N)[C@@H](C)CC)C(C)C)[C@@H](C)O)C(=O)N[C@@H](CCC(N)=O)C(=O)O` [NPM 266-285 cit, AKFINYVKNCF-cit-MTDQEAIQ] (H-AKFINYVKNCF[Cit]MTDQEAIQ-OH), the Associated toxicity result in data set [4] was “no associated toxicity”.
In the case of GKDSKPSSTP-cit-SKGQESFKK [211-230], the T cell response entry in data set [1] is on record as “No”.
The same measure, in the same setting: as for FDDEEAEEKAPVKKSI-cit-DTP [181-200], the entry is “No”.
With `CC[C@H](C)[C@H](NC(=O)[C@H](C)NC(=O)[C@H](CCC(=O)O)NC(=O)[C@H](CCC(N)=O)NC(=O)[C@H](CC(=O)O)NC(=O)[C@@H](NC(=O)[C@H](CCSC)NC(=O)[C@H](CCCNC(=N)N)NC(=O)[C@H](Cc1ccccc1)NC(=O)[C@H](CS)NC(=O)[C@H](CC(N)=O)NC(=O)[C@H](CCCCN)NC(=O)[C@@H](NC(=O)[C@H](Cc1ccc(O)cc1)NC(=O)[C@H](CC(N)=O)NC(=O)[C@@H](NC(=O)[C@H](Cc1ccccc1)NC(=O)[C@H](CCCCN)NC(=O)[C@H](C)N)[C@@H](C)CC)C(C)C)[C@@H](C)O)C(=O)N[C@@H](CCC(N)=O)C(=O)O` [NPM 266-285 wt, reference compound] (H-AKFINYVKNCFRMTDQEAIQ-OH), the Associated toxicity result in data set [4] was “no associated toxicity”.
On to YVKNCF-cit-MTDQEAI QDLWQW [271-290], for which the T cell response result in data set [1] was “No”.
Turning to TVSLGGFEITPPVVL-cit-LKCG [86-105], the T cell response entry in data set [1] is reported as “No”.
